Assay results from publication PMC3871589, “Evaluation of STAT3 Signaling in ALDH+ and ALDH+/CD44+/CD24− Subpopulations of Breast Cancer Cells” (PLoS ONE, 2013).

What was measured:
c-SRC = c-SRC (Homo sapiens, UniProt P12931); experiment: Kinase profiler assay, c-SRC; assay type: biochemical; conditions: 10 concentrations, 100 µM highest; Table S3
Experimental: (§1) The effects of LLL12 on twenty six purified human protein kinases were performed at the Millipore UK Limited (Dundee, UK) and Reaction Biology Corp. (Malvern, PA) using the Kinase profiler assay. Assays contained a peptide substrate, purified recombinant human protein kinases to be tested, and gamma-labeled ATP, magnesiumion. Radioactive phosphorylated product was measured and quantitated via a scintillation counter.

Syk = Syk (Homo sapiens, UniProt P43405); experiment: Kinase profiler assay, Syk; assay type: biochemical; conditions: 10 concentrations, 100 µM highest; Table S3
Experimental: as §1

[1] = test system: STAT3 phosphorylation (Y705); experiment: Western blot of STAT3 phosphorylation in un-separated breast cancer cells; assay type: cell-based, human; conditions: un-separated MDA-MB-231, SK-BR-3, SUM159 cells, 10 µM, 24 hours
Experimental: (§2) After sorting by flow cytometry, ALDH^+ and ALDH^+/CD44^+/CD24^− stem-like cells were cultured in serum-free stem cell medium in ultra-low attachment six-well plates (Corning) to maintain cancer stem cell characteristics. ALDH^−, ALDH^−/CD44^+/CD24^+cells and un-separated cells were cultured in regular medium and replaced with identical stem cell medium for three days before being harvested. To assess the effects of STAT3 inhibitors, ALDH^+ and ALDH^+/CD44^+/CD24^− subpopulations of breast cancer cells were treated with LLL12 (5 µmol/L) of or static (10 µmol/L) for 24 hours. STAT3, or control GFP shRNA lentivirus (CTL ShRNA) was introduced into ALDH^+ breast cancer stem-like cells for 48 hours, then followed by selection with puromycin (0.2 µg/ml) for 72 hours. Antibodies (Cell Signaling Tech.) against phospho-specific STAT3 (Tyrosine 705) (P-STAT3, Y705), ERK1/2 (Threonine 202/Tyrosine 204), cleaved Poly (ADP-ribose) polymerase (PARP), ALDH1, cleaved caspase-3, and GAPDH were used for western blots.
LLL12 was synthesized in Dr. Pui-Kai Li’s laboratory (College of Pharmacy, The Ohio State University). Un-separated cells were treated with 10 µM of LLL12 or DMSO for 24 hours, and the phosphorylation of STAT3 (Y705), and ERK 1/2 (T202/Y204), and expression of STAT3 downstream genes, cleaved caspase-3, and PARP were detected by Western blots. (JPG) Click here for additional data file.

[2] = test system: mTOR and AKT phosphorylation; experiment: mTOR and AKT phosphorylation in ALDH+ cells; assay type: cell-based, human; conditions: ALDH+ subpopulation, all three cell lines; 5 µmol/L, 24 hours
Experimental: as §2

ALDH1 = ALDH1 protein expression in ALDH+ cells; assay type: cell-based, human
Experimental: as §2

Sequence of c-SRC (P12931 whole entry): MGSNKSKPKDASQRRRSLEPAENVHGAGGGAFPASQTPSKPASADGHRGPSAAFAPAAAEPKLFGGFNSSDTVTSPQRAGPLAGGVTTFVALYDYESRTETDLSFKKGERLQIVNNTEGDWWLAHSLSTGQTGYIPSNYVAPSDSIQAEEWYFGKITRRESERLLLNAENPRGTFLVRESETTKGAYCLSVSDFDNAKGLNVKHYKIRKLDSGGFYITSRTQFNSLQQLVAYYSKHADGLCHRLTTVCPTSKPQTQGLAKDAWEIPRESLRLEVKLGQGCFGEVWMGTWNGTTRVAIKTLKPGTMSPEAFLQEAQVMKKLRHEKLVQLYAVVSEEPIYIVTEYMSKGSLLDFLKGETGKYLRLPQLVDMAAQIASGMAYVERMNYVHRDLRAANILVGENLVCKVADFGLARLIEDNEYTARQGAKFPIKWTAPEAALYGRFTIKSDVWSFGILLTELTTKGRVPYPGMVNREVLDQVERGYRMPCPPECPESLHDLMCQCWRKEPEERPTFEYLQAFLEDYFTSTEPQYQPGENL

NS(=O)(=O)c1cccc2c1C(=O)c1cccc(O)c1C2=O [LLL12]
IC50 (c-SRC): > 100 µM
IC50 (Syk): > 100 µM
STAT3 phosphorylation [1]: inhibited
mTOR and AKT phosphorylation [2]: almost no effect
expression of ALDH1 protein (ALDH1): down-regulated
